The results in this text go back to US11840535B2, “Alkynyl(hetero)aromatic compound for inhibiting protein kinase activity” (Shenzhen TargetRx, Inc., priority 2018, dated 2023).

SMILES strings stand for the structures. pIC50: −log10 of the molar value.

For assay [1], the system named is Ba/F3 parental cells. Put plainly: Cell proliferation analysis, Ba/F3 parental. It counts as cell-based. Conditions: Mus musculus, BaF3, 72 h; 8 ng/ml IL-3, 3 days, CellTiter-Glo. Here is the method: (§1) The inhibitory effect of the example compounds on Ba/F3, Ba/F3 Bcr-Abl T315I cell activity was determined.
(§2) Materials and reagents: RPMI-1640 medium (GIBCO, Catalog No. A10491-01), fetal bovine serum (GIBCO, Catalog No. 10099141), antibiotics (Penicillin-Streptomycin), IL-3 (PeproTech), promycin; cell lines: Ba/F3, Ba/F3 Bcr-Abl T315I (Purchased from American type culture collection, ATCC), live cell detection kit […] (Promega, Catalog No. G7572), 96-well black wall transparent flat bottom cell culture plate (Corning, Catalog No. 3340).
(§3) Test method: 1. Preparation of cell plate: Ba/F3, Ba/F3 Bcr-Abl T315I cells were respectively seeded in 96-well plates, and 8 ng/ml IL-3 was added to the Ba/F3 cells, and the cell plates were placed in a carbon dioxide incubator and cultured overnight. 2. The test compounds were dissolved in DMSO, 9 compound concentrations were made with a 3.16-fold gradient dilution in triplicate. 3. Treatment of the cells with compounds: The compounds were transferred to the cell plate with a starting concentration of 10 μM. The cell plate was placed in a carbon dioxide incubator for 3 days. 4. Detection: CellTiter-Glo agent was added to the cell plate, and incubated at room temperature for 30 minutes to stabilize the luminous signal. PerkinElmer Envision multi-label analyzer was used for reading, wherein A represents […], B represents IC50 is 10-20 nM, C represents IC50 is 20-50 nM, D represents IC50 is 50-1000 nM, E represents IC50>1000 nM.

In assay [2] the test system is Ba/F3 Bcr-Abl T315I cells. Nature of the assay: Cell proliferation analysis, Ba/F3 Bcr-Abl T315I. Particulars: for pIC50: Mus musculus, BaF3, 72 h, 3 days, CellTiter-Glo; for Selectivity [Ba/F3 (parental/Bcr-Abl ^T315I)]: ratio of Ba/F3 parental to Ba/F3 Bcr-Abl T315I. The assay is classed as cell-based. The procedure:
as §1, §2, §3

Assay [3] addresses ABL (Homo sapiens (Human), UniProt P00519). Nature of the assay: Biochemical kinase analysis, ABL. The procedure: (§4) Reagents and materials: ABL (ThermoFisher, Cat. No PV3585), ABL^T315I (Thermo Fisher, Cat. No. PR7429B), ATP (Sigma, Cat. No. A7699-1G), DMSO (Sigma, Cat. No. D2650), 96-well plate (Corning, Cat. No. 3365), 384-well plate (Greiner, Cat. No. 784076), buffer solution (Thermo Fisher, Cat. No. PR4876B).
(§5) Compound formulation: The test compounds were dissolved in DMSO to prepare a 20 mM stock solution. Before use, the compounds were diluted in DMSO to 0.1 mM, and diluted into 11 concentrations with a 3-fold gradient. When addition, diluentions of 4-fold final concentration were then made with buffer solution.
(§6) Kinase assay method: After preparing the buffer, the enzyme was mixed with pre-formulated and diluted compounds of different concentrations in duplicate for each concentration, and placed at room temperature for 30 minutes. The corresponding substrate and ATP were added thereto, and reacted at room temperature for 60 minutes (both a negative and a positive control were set). After the reaction, antibody was added for detection, Envision detection was carried out after 60 minutes incubation at room temperature, and data was collected. Data analysis and fitting were made according to XLfit5 software, wherein, A represents IC50≤5 nM, B represents IC50 is 5-50 nM, C represents IC50 is 50-100 nM, D represents IC50>100 nM.

In assay [4] the target is ABL^T315I (Homo sapiens (Human), UniProt P00519, T315I). Put plainly: Biochemical kinase analysis, ABL T315I. Here is the method: as §4, §5, §6

As to `CCc1nc(C#Cc2cc(C(=O)Nc3ccc(CN4CCN(C)CC4)c(C(F)(F)F)c3)ccc2C)c2c(N)nccn12` [Example 1, 3-((8-amino-3-ethylimidazo[1,5-a]pyrazin-1-yl)ethynyl)-4-methyl-N-(4-((4-methylpiperazin-1-yl)methyl)-3-(trifluoromethyl)phenyl)benzamide], the pIC50 was less than 6.00 in assay [1], 7.30 to 7.70 in assay [2], not below 8.30 in assay [3] and not below 8.30 in assay [4]. In addition, the “Selectivity [Ba/F3 (parental/Bcr-Abl ^T315I)]” value in assay [2] is 50~100.
On to `CCc1nc(C#Cc2cc(C(=O)Nc3cccc(C(F)(F)F)c3)ccc2C)c2c(N)nccn12` [Example 2, 3-((8-amino-3-ethylimidazo[1,5-a]pyrazin-1-yl)ethynyl)-4-methyl-N-(3-(trifluoromethyl)phenyl)benzamide], for which the results for the pIC50 in assay [3] and in assay [4] were 7.30 to 8.30 and 7.00 to 7.30, respectively.
For `Cc1ccc(C(=O)Nc2ccc(CN3CCN(C)CC3)c(C(F)(F)F)c2)cc1C#Cc1nc(C)n2ccnc(N)c12` [Example 3, 3-((8-amino-3-methylimidazo[1,5-a]pyrazin-1-yl)ethynyl)-4-methyl-N-(4-((4-methylpiperazin-1-yl)methyl)-3-(trifluoromethyl)phenyl)benzamide] the same measures were not below 8.30 and not below 8.30.
`Cc1ccc(C(=O)Nc2ccc(CN3CCN(C)CC3)c(C(F)(F)F)c2)cc1C#Cc1nc(C(C)C)n2ccnc(N)c12` [Example 4, 3-((8-amino-3-isopropylimidazo[1,5-a]pyrazin-1-yl)ethynyl)-4-methyl-N-(4-((4-methylpiperazin-1-yl)methyl)-3-(trifluoromethyl)phenyl)benzamide]: the pIC50 in assay [1] is less than 6.00; in assay [2], 6.00 to 7.30; in assay [3] it was not below 8.30; in assay [4], not below 8.30. In addition, the “Selectivity [Ba/F3 (parental/Bcr-Abl ^T315I)]” value in assay [2] is on record as 0~50.
For `CCn1cc(C#Cc2cc(C(=O)Nc3cccc(C(F)(F)F)n3)ccc2C)c2c(N)ncnc21` [Example 7, 3-((4-amino-7-ethyl-7H-pyrrolo[2,3-d]pyrimidin-5-yl)ethynyl)-4-methyl-N-(6-(trifluoromethyl)pyridin-2-yl)benzamide], the pIC50 in assay [3] was not below 8.30; in assay [4], 7.30 to 8.30.
In the case of `CCn1cc(C#Cc2cccc(C(=O)Nc3cccc(C(F)(F)F)c3)c2)c2c(N)ncnc21` [Example 8, 3-((4-amino-7-ethyl-7H-pyrrolo[2,3-d]pyrimidin-5-yl)ethynyl)-N-(3-(trifluoromethyl)phenyl)benzamide], the negative logarithm of the IC50 (pIC50) in assay [3] and in assay [4] was not below 8.30 each time.
Turning to `CCn1cc(C#Cc2cc(C(=O)Nc3ccc(CN(C)C)c(C(F)(F)F)c3)ccc2C)c2c(N)ncnc21` [Example 9, 3-((4-amino-7-ethyl-7H-pyrrolo[2,3-d]pyrimidin-5-yl)ethynyl)-N-(4-((dimethylamino)methyl)-3-(trifluoromethyl)phenyl)-4-methylbenzamide], the pIC50 in assay [1] was less than 6.00; in assay [2], 7.70 to 8.00; in assay [3], not below 8.30; in assay [4] it was not below 8.30. Also, the “Selectivity [Ba/F3 (parental/Bcr-Abl ^T315I)]” value in assay [2] is listed as 150~500.
Consider `CCn1cc(C#Cc2cc(C(=O)Nc3cc(-n4cnc(C)c4)cc(C(F)(F)F)c3)ccc2C)c2c(N)ncnc21` [Example 10, 3-((4-amino-7-ethyl-7H-pyrrolo[2,3-d]pyrimidin-5-yl)ethynyl)-4-methyl-N-(3-(4-methyl-1H-imidazol-1-yl)-5-(trifluoromethyl)phenyl)benzamide], for which the pIC50 in assay [1] is less than 6.00; in assay [2], 7.70 to 8.00; in assay [3], 7.30 to 8.30; in assay [4], 7.30 to 8.30. Further, the “Selectivity [Ba/F3 (parental/Bcr-Abl ^T315I)]” value in assay [2] is recorded as 150~500.
As to `Cc1cn(-c2cc(NC(=O)c3ccc(C)c(C#Cc4cn(C)c5ncnc(N)c45)c3)cc(C(F)(F)F)c2)cn1` [Example 11, 3-((4-amino-7-methyl-7H-pyrrolo[2,3-d]pyrimidin-5-yl)ethynyl)-4-methyl-N-(3-(4-methyl-1H-imidazol-1-yl)-5-(trifluoromethyl)phenyl)benzamide], the pIC50 in assay [1] is less than 6.00; in assay [2], 7.70 to 8.00; in assay [3], not below 8.30; in assay [4], 7.30 to 8.30. Further, the “Selectivity [Ba/F3 (parental/Bcr-Abl ^T315I)]” value in assay [2] is given as more than 500.
Turning to `Cc1ccc(C(=O)Nc2cccc(C(F)(F)F)c2)cc1C#Cc1cn(C(C)C)c2ncnc(N)c12` [Example 13, 3-((4-amino-7-isopropyl-7H-pyrrolo[2,3-d]pyrimidin-5-yl)ethynyl)-4-methyl-N-(3-(trifluoromethyl)phenyl)benzamide], the pIC50 in assay [1] is less than 6.00; in assay [2], 7.30 to 7.70; in assay [3], 7.30 to 8.30; in assay [4], 7.30 to 8.30. In assay [2], the “Selectivity [Ba/F3 (parental/Bcr-Abl ^T315I)]” value is 100~150.
`Cc1ccc(C(=O)Nc2cccc(C(F)(F)F)c2)cc1C#Cc1cn(C)c2ncnc(N)c12` [Example 14, 3-((4-amino-7-methyl-7H-pyrrolo[2,3-d]pyrimidin-5-yl)ethynyl)-4-methyl-N-(3-(trifluoromethyl)phenyl)benzamide]: the pIC50 was less than 6.00 in assay [1], 7.30 to 7.70 in assay [2], not below 8.30 in assay [3] and not below 8.30 in assay [4]. In addition, the “Selectivity [Ba/F3 (parental/Bcr-Abl ^T315I)]” value in assay [2] is on record as 50~100.
With `Cc1ccc(C(=O)Nc2ccc(CN3CCN(C)CC3)c(C(F)(F)F)c2)cc1C#Cc1cn(C)c2ncnc(N)c12` [Example 16, 3-((4-amino-7-methyl-7H-pyrrolo[2,3-d]pyrimidin-5-yl)ethynyl)-4-methyl-N-(4-((4-methylpiperazin-1-yl)methyl)-3-(trifluoromethyl)phenyl)benzamide], the negative logarithm of the IC50 (pIC50) is less than 6.00 in assay [1], not below 8.00 in assay [2], not below 8.30 in assay [3] and not below 8.30 in assay [4]. In addition, the “Selectivity [Ba/F3 (parental/Bcr-Abl ^T315I)]” value in assay [2] was 150~500.
Regarding `Cc1ccc(NC(=O)c2ccc(CN3CCN(C)CC3)c(C(F)(F)F)c2)cc1C#Cc1cn(C)c2ncnc(N)c12` [Example 19, N-(3-((4-amino-7-methyl-7H-pyrrolo[2,3-d]pyrimidin-5-yl)ethynyl)-4-methylphenyl)-4-((4-methylpiperazin-1-yl)methyl)-3-(trifluoromethyl)benzamide], the pIC50 is less than 6.00 in assay [1], not below 8.00 in assay [2], not below 8.30 in assay [3] and not below 8.30 in assay [4]. Besides, in assay [2], the “Selectivity [Ba/F3 (parental/Bcr-Abl ^T315I)]” value is 150~500.
Consider `Cc1ccc(NC(=O)c2ccc(C)c(C(F)(F)F)c2)cc1C#Cc1cn(C2CCCC2)c2ncnc(N)c12` [Example 20, N-(3-((4-amino-7-cyclopentyl-7H-pyrrolo[2,3-d]pyrimidin-5-yl)ethynyl)-4-methylphenyl)-4-methyl-3-(trifluoromethyl)benzamide], for which the pIC50 in assay [3] is 7.30 to 8.30; in assay [4] it was 7.00 to 7.30.
Take `CCn1cc(C#Cc2cc(NC(=O)c3cc(-n4cnc(C)c4)cc(C(F)(F)F)c3)ccc2C)c2c(N)ncnc21` [Example 21, N-(3-((4-amino-7-ethyl-7H-pyrrolo[2,3-d]pyrimidin-5-yl)ethynyl)-4-methylphenyl)-3-(4-methyl-1H-imidazol-1-yl)-5-(trifluoromethyl)benzamide]: the negative logarithm of the IC50 (pIC50) is 6.00 to 7.30 in assay [1], not below 8.00 in assay [2], not below 8.30 in assay [3] and 7.30 to 8.30 in assay [4]. In addition, the “Selectivity [Ba/F3 (parental/Bcr-Abl ^T315I)]” value in assay [2] is reported as 50~100.
`Cc1ccc(C(=O)Nc2cccc(C(F)(F)F)c2)cc1C#Cc1cn([C@H]2CC[C@H](O)CC2)c2ncnc(N)c12` [Example 23, 3-((4-amino-7-((1r,4r)-4-hydroxycyclohexyl)-7H-pyrrolo[2,3-d]pyrimidin-5-yl)ethynyl)-4-methyl-N-(3-(trifluoromethyl)phenyl)benzamide]: the pIC50 in assay [3] is not below 8.30; in assay [4], 7.30 to 8.30.
